What follows are molecules tested against GSK3α (Homo sapiens, UniProt P49840) (assay: GSK3α in vitro enzymatic assay (Kinase-Glo Max luminescence)). Details: recombinant human GSK3, 10 μM ATP; approximate values; read-out: Potency GSK3alpha.
Type: biochemical
Description: (§1) Enzymatic activities of compounds of the present disclosure can be tested using recombinant human GSK3 in an in vitro enzymatic assay to determine the ability of the compounds of the present disclosure to inhibit GSK3α and GSK3β.
(§2) The assay was performed using Kinase-Glo® Max luminescence kinase assay kit (Promega). The assay measures kinase activity by quantitating the amount of ATP remaining in solution following a kinase reaction. The luminescent signal from the assay is correlated with the amount of ATP present and is inversely correlated with the amount of kinase activity.
(§3) To perform the assay, compounds were diluted in 10% DMSO and 5 μl of the dilution was added to a 50 μl reaction so that the final concentration of DMSO was 1% in all of reactions. The enzymatic reactions were conducted at 30° C. for 40 minutes. The 50 μl reaction mixture contained 40 mM Tris, pH 7.4, 10 mM MgCl2, 0.1 mg/ml BSA, 2 mM DTT, 0.1 mg/ml GSK tide substrate, 10 uM ATP and GSK3. After the enzymatic reaction, 50 μl of Kinase-Glo Max Luminescence kinase assay solution (Promega) was added to each reaction and plates were incubated for 15 minutes at room temperature. Luminescence signal was measured using a BioTek Synergy 2 microplate reader.
(§4) Kinase activity assays were performed in duplicate at each concentration. The luminescence data were analyzed using the computer software, GraphPad Prism. The difference between luminescence intensities in the absence of Kinase (Lut) and in the presence of Kinase (Luc) was defined as 100% activity (Lut-Luc). Using luminescence signal (Lu) in the presence of the compound, percent activity was calculated as: % activity={(Lut-Lu)/(Lut-Luc)}×100%, where Lu=the luminescence intensity in the presence of the compound (all percent activities below zero were shown zero in the table).
(§5) The values of percent activity versus a series of compound concentrations were then plotted using non-linear regression analysis of Sigmoidal dose-response curve generated with the equation Y=B+(T−B)/1+10((LogEC50−X)×Hill Slope), where Y=percent activity, B=minimum percent activity, T=maximum percent activity, X=logarithm of compound and Hill Slope=slope factor or Hill coefficient. The ICs, value was determined by the concentration causing a half-maximal percent activity.

Sequence of GSK3α (P49840 whole entry): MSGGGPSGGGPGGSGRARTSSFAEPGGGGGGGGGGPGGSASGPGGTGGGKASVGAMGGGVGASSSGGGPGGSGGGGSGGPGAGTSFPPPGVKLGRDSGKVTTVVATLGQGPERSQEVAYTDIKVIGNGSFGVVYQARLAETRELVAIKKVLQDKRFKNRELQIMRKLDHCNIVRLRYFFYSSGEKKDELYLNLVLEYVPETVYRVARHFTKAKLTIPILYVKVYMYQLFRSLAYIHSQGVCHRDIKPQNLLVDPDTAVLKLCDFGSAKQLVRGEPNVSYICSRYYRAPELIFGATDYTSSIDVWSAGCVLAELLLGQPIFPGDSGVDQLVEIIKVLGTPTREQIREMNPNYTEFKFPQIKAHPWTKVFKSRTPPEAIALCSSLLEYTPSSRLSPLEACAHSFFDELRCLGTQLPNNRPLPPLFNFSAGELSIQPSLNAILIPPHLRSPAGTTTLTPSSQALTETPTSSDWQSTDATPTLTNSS

| SMILES | IC50 [nM] |
| --- | --- |
| CCn1cc(C(=O)O)c(=O)c2c(N)c(F)c(N[C@@H]3CC[C@H]3c3ccccc3)cc21 (relative stereo) [Compound I-13] | 628 |
| CCn1cc(C(=O)O)c(=O)c2c(N)c(F)c(N[C@@H]3CC[C@@H]3c3ccccc3)cc21 (relative stereo) [Compound I-14] | > 10000 |
| CCn1cc(C(=O)O)c(=O)c2c(N)c(F)c(N[C@@H]3C[C@@H]3c3ccccc3)cc21 (relative stereo) [Compound I-23] | 221 |
| CCn1cc(C(=O)O)c(=O)c2c(N)c(F)c(N3CCC(N[C@@H]4C[C@H]4c4ccccc4)CC3)cc21 (relative stereo) [Compound I-26] | > 10000 |
| CCn1cc(C(=O)O)c(=O)c2c(N)c(F)c(N[C@H]3CC[C@H](N[C@@H]4C[C@H]4c4ccccc4)CC3)cc21 (relative stereo) [Compound I-27] | 47 |
| CCn1cc(C(=O)O)c(=O)c2c(N)c(F)c(N[C@H]3CC[C@@H](N[C@@H]4C[C@H]4c4ccccc4)CC3)cc21 (relative stereo) [Compound I-28] | 451 |
| CCn1cc(C(=O)O)c(=O)c2c(N)c(F)c(NCCN[C@@H]3C[C@H]3c3ccccc3)cc21 (relative stereo) [Compound I-29] | 119 |
| Nc1c(F)c(N[C@@H]2C[C@H]2c2ccccc2)c(F)c2c1c(=O)c(C(=O)O)cn2C1CC1 (relative stereo) [Compound I-32] | 1600 |
| CCn1cc(C#N)c(=O)c2c(N)c(F)c(N[C@@H]3C[C@H]3c3ccccc3)cc21 (relative stereo) [Compound I-38] | 6.3 |
| CCn1cc(C(=O)O)c(=O)c2c(N)c(F)c(N(C)CCN[C@H]3C[C@@H]3c3ccccc3)cc21 (relative stereo) [Compound I-50] | > 10000 |

These molecules were tested against GSK3β (Homo sapiens, UniProt P49841) (assay: GSK3β in vitro enzymatic assay (Kinase-Glo Max luminescence)). Details: recombinant human GSK3, 10 μM ATP; approximate values; read-out: Potency GSK3beta.
Type: biochemical
Description: as §1, §2, §3, §4, §5

Sequence of GSK3β (P49841 whole entry): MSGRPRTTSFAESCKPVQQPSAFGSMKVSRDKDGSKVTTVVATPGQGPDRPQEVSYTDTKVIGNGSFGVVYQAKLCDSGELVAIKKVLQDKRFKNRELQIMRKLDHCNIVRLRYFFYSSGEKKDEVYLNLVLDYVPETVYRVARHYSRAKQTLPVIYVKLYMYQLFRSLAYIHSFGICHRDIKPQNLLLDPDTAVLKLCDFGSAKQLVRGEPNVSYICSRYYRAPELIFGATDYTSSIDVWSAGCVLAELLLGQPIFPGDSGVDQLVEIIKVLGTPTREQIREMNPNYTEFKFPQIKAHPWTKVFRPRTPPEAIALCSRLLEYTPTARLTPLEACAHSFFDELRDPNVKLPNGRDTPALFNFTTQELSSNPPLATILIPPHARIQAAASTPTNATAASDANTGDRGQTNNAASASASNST

| SMILES | IC50 [nM] |
| --- | --- |
| CCn1cc(C(=O)O)c(=O)c2c(N)c(F)c(N[C@@H]3CC[C@H]3c3ccccc3)cc21 (relative stereo) [Compound I-13] | 555 |
| CCn1cc(C(=O)O)c(=O)c2c(N)c(F)c(N[C@@H]3CC[C@@H]3c3ccccc3)cc21 (relative stereo) [Compound I-14] | > 10000 |
| CCn1cc(C(=O)O)c(=O)c2c(N)c(F)c(N[C@@H]3C[C@@H]3c3ccccc3)cc21 (relative stereo) [Compound I-23] | 770 |
| CCn1cc(C(=O)O)c(=O)c2c(N)c(F)c(N3CCC(N[C@@H]4C[C@H]4c4ccccc4)CC3)cc21 (relative stereo) [Compound I-26] | > 10000 |
| CCn1cc(C(=O)O)c(=O)c2c(N)c(F)c(N[C@H]3CC[C@H](N[C@@H]4C[C@H]4c4ccccc4)CC3)cc21 (relative stereo) [Compound I-27] | 75 |
| CCn1cc(C(=O)O)c(=O)c2c(N)c(F)c(N[C@H]3CC[C@@H](N[C@@H]4C[C@H]4c4ccccc4)CC3)cc21 (relative stereo) [Compound I-28] | 691 |
| CCn1cc(C(=O)O)c(=O)c2c(N)c(F)c(NCCN[C@@H]3C[C@H]3c3ccccc3)cc21 (relative stereo) [Compound I-29] | 303 |
| Nc1c(F)c(N[C@@H]2C[C@H]2c2ccccc2)c(F)c2c1c(=O)c(C(=O)O)cn2C1CC1 (relative stereo) [Compound I-32] | 2100 |
| CCn1cc(C#N)c(=O)c2c(N)c(F)c(N[C@@H]3C[C@H]3c3ccccc3)cc21 (relative stereo) [Compound I-38] | 2.5 |
| CCn1cc(C(=O)O)c(=O)c2c(N)c(F)c(N(C)CCN[C@H]3C[C@@H]3c3ccccc3)cc21 (relative stereo) [Compound I-50] | > 10000 |

The molecules below were run against LSD-1 (Homo sapiens, UniProt O60341) (assay: LSD-1 A-screen (AlphaScreen) demethylase enzymatic assay). Details: 50 μM compound; approximate values; read-out: Potency LSD-1 % Inhibition at 50 μM.
Type: biochemical
Description: (§6) Enzymatic activities of compounds of the present disclosure can be tested with recombinant human LSD using an in vitro enzymatic assay to determine the ability of the compounds of the present disclosure to inhibit LSD-1 and LSD2. Examples of the assay are provided below.
(§7) All of the enzymatic reactions were conducted in duplicate at room temperature for 60 minutes in a 10 μL mixture containing assay buffer, histone H3 peptide substrate, demthylase enzyme, and the test compound. These 10 μL reactions were carried out in wells of a 384-well Optiplate (PerkinElmer). The dilution of the compounds was first performed in 100% DMSO with the highest concentration at 5 mM Each intermediate compound dilution (in 100% DMSO) was then directly diluted 30× fold into assay buffer for 3.3× concentration (DMSO). […] From this intermediate step, 3 μL of compound was added to 4 μL of demethylase enzyme dilution was incubated for 30 minutes at room temperature. After this incubation, 3 μL of peptide substrate was added. The final DMSO concentration was 1%. After enzymatic reactions, 5 μL of anti-Mouse or anti-Rabbit Acceptor beads (PerkinElmer, diluted 1:500 with 1× detection buffer) and […] (BPS, diluted 1:800 with 1× detection buffer) were added to the reaction mix. After brief shaking, the plate was incubated for 30 minutes. Finally, 10 μL of AlphaScreen™ Streptavidin-conjugated donor beads (Perkin, diluted 1:125 with 1× detection buffer) were added. After 30 minutes, the samples were measured in an AlphaScreen microplate reader (EnSpire Alpha 2390 Multilabel Reader, Perkin Elmer).
(§8) Enzyme activity assays were performed in duplicates at each concentration. The A-screen intensity data were analyzed and compared. In the absence of the compound, the intensity in each data set was defined as 100% (Ce) activity. In the absence of enzyme, the intensity in each data set was defined as 0% (C0) activity. The percent activity in the presence of each compound was calculated according to the following equation: % activity=(C−C0)/(Ce−C0), where C=the intensity in the presence of the compound.
as §5, with “value” for “values”, “was” for “were”, “IC50” for “ICs,”

| SMILES | inhibition at 50 µM [%] |
| --- | --- |
| CCn1cc(C(=O)O)c(=O)c2c(N)c(F)c(N[C@@H]3CC[C@H]3c3ccccc3)cc21 (relative stereo) [Compound I-13] | 26 |
| CCn1cc(C(=O)O)c(=O)c2c(N)c(F)c(N[C@@H]3CC[C@@H]3c3ccccc3)cc21 (relative stereo) [Compound I-14] | 5 |
| CCn1cc(C(=O)O)c(=O)c2c(N)c(F)c(N[C@@H]3C[C@@H]3c3ccccc3)cc21 (relative stereo) [Compound I-23] | 26 |
| Nc1c(F)c(N[C@@H]2C[C@H]2c2ccccc2)c(F)c2c1c(=O)c(C(=O)O)cn2C1CC1 (relative stereo) [Compound I-32] | 40 |
| CCn1cc(C#N)c(=O)c2c(N)c(F)c(N[C@@H]3C[C@H]3c3ccccc3)cc21 (relative stereo) [Compound I-38] | 15 |

Same assay, conditions: approximate values; read-out: Potency LSD-1 IC50

| SMILES | IC50 [nM] |
| --- | --- |
| CCn1cc(C(=O)O)c(=O)c2c(N)c(F)c(N3CCC(N[C@@H]4C[C@H]4c4ccccc4)CC3)cc21 (relative stereo) [Compound I-26] | 1500 |
| CCn1cc(C(=O)O)c(=O)c2c(N)c(F)c(N[C@H]3CC[C@H](N[C@@H]4C[C@H]4c4ccccc4)CC3)cc21 (relative stereo) [Compound I-27] | 1600 |
| CCn1cc(C(=O)O)c(=O)c2c(N)c(F)c(N[C@H]3CC[C@@H](N[C@@H]4C[C@H]4c4ccccc4)CC3)cc21 (relative stereo) [Compound I-28] | 1300 |
| CCn1cc(C(=O)O)c(=O)c2c(N)c(F)c(NCCN[C@@H]3C[C@H]3c3ccccc3)cc21 (relative stereo) [Compound I-29] | 6900 |
| CCn1cc(C(=O)O)c(=O)c2c(N)c(F)c(N(C)CCN[C@H]3C[C@@H]3c3ccccc3)cc21 (relative stereo) [Compound I-50] | 5500 |

The molecules below were run against T1, LSD2 (Homo sapiens, UniProt Q8NB78) (assay: LSD2 A-screen (AlphaScreen) demethylase enzymatic assay). Details: 50 μM compound; approximate values; read-out: Potency LSD-2 % Inhibition at 50 μM.
T1 sequence (Q8NB78 1-822): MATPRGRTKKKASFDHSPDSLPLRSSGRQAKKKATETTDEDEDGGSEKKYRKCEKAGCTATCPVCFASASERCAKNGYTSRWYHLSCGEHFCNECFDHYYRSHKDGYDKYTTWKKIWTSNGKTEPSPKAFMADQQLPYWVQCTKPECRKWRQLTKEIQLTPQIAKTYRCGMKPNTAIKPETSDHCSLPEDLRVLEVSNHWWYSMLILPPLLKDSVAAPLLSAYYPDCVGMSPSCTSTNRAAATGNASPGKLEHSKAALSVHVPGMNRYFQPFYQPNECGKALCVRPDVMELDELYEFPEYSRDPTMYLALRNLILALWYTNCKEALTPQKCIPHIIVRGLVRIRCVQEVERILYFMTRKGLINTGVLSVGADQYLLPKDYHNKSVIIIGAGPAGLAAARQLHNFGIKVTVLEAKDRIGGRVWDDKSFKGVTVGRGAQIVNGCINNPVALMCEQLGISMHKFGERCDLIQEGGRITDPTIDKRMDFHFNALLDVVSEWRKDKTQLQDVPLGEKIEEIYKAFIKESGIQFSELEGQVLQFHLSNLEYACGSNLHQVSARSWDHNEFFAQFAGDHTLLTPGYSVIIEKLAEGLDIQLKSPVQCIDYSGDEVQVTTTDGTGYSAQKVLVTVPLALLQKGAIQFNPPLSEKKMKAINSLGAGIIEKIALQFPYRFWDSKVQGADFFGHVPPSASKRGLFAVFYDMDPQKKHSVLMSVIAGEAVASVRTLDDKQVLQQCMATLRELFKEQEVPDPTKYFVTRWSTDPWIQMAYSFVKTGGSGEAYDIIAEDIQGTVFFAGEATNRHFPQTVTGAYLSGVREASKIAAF
Type: biochemical
Description: as §6, §7, §8
as §5, with “value” for “values”, “was” for “were”, “IC50” for “ICs,”

| SMILES | inhibition at 50 µM [%] |
| --- | --- |
| CCn1cc(C(=O)O)c(=O)c2c(N)c(F)c(N[C@@H]3CC[C@H]3c3ccccc3)cc21 (relative stereo) [Compound I-13] | 18 |
| CCn1cc(C(=O)O)c(=O)c2c(N)c(F)c(N[C@@H]3CC[C@@H]3c3ccccc3)cc21 (relative stereo) [Compound I-14] | 3 |
| CCn1cc(C(=O)O)c(=O)c2c(N)c(F)c(N[C@@H]3C[C@@H]3c3ccccc3)cc21 (relative stereo) [Compound I-23] | 16 |
| CCn1cc(C(=O)O)c(=O)c2c(N)c(F)c(N3CCC(N[C@@H]4C[C@H]4c4ccccc4)CC3)cc21 (relative stereo) [Compound I-26] | 53 |
| CCn1cc(C(=O)O)c(=O)c2c(N)c(F)c(N[C@H]3CC[C@H](N[C@@H]4C[C@H]4c4ccccc4)CC3)cc21 (relative stereo) [Compound I-27] | 45 |
| CCn1cc(C(=O)O)c(=O)c2c(N)c(F)c(N[C@H]3CC[C@@H](N[C@@H]4C[C@H]4c4ccccc4)CC3)cc21 (relative stereo) [Compound I-28] | 65 |
| CCn1cc(C(=O)O)c(=O)c2c(N)c(F)c(NCCN[C@@H]3C[C@H]3c3ccccc3)cc21 (relative stereo) [Compound I-29] | 54 |
| Nc1c(F)c(N[C@@H]2C[C@H]2c2ccccc2)c(F)c2c1c(=O)c(C(=O)O)cn2C1CC1 (relative stereo) [Compound I-32] | 36 |
| CCn1cc(C#N)c(=O)c2c(N)c(F)c(N[C@@H]3C[C@H]3c3ccccc3)cc21 (relative stereo) [Compound I-38] | 0 |
| CCn1cc(C(=O)O)c(=O)c2c(N)c(F)c(N(C)CCN[C@H]3C[C@@H]3c3ccccc3)cc21 (relative stereo) [Compound I-50] | 50 |

Source: patent publication US20230058189A1, “QUINOLIN-4-ONE AND 4(1H)-CINNOLINONE COMPOUNDS AND METHODS OF USING SAME” (Frequency Therapeutics, Inc., priority 2019, published 2023)
